Test results as given in patent US6737383B1, “Herbicidal oxadiazolidines” (priority 1999, dated 2004).

Key:
bedstraw = assay: Test B pre/postemergence bedstraw; assay type: in vivo, Galium aparine
How it was run: (§1)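 Herbicidal effect was estimated by eye on a ten-point control scale after plants spent twelve to sixteen days in a greenhouse following soil or foliar treatment. Foliar sprays targeted plants at one to four leaves; all doses were formulated in a non-phytotoxic solvent with surfactant.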

blackgrass = assay: Test B pre/postemergence blackgrass; assay type: in vivo, Alopecurus myosuroides
How it was run: as §1

surinam grass = assay: Test B pre/postemergence surinam grass; assay type: in vivo, Brachiaria decumbens
How it was run: as §1

corn = assay: Test B pre/postemergence corn; assay type: in vivo, Zea mays
How it was run: as §1

crabgrass = assay: Test B pre/postemergence crabgrass; assay type: in vivo, Digitaria sanguinalis
How it was run: as §1

giant foxtail = assay: Test B pre/postemergence giant foxtail; assay type: in vivo, Setaria faberii
How it was run: as §1

morningglory = assay: Test B pre/postemergence morningglory; assay type: in vivo, Ipomoea hederacea
How it was run: as §1

pigweed = assay: Test B pre/postemergence pigweed; assay type: in vivo, Amaranthus retroflexus
How it was run: as §1

soybean = assay: Test B pre/postemergence soybean; assay type: in vivo, Glycine max
How it was run: as §1

velvetleaf = assay: Test B pre/postemergence velvetleaf; assay type: in vivo, Abutilon theophrasti
How it was run: as §1

wheat = assay: Test B pre/postemergence wheat; assay type: in vivo, Triticum aestivum
How it was run: as §1

wild oat = assay: Test B pre/postemergence wild oat; assay type: in vivo, Avena fatua
How it was run: as §1

purple nutsedge = assay: Test B pre/postemergence purple nutsedge; assay type: in vivo, Cyperus rotundus; conditions: for Nutsedge plant response rating: Postemergence; for Plant response rating, Nutsedge: Preemergence
How it was run: as §1

rice = assay: Test B flood test rice; assay type: in vivo, Oryza sativa
How it was run: (§2)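 Plants were grown to the 2-leaf stage before treatment with test chemical, then held in a greenhouse for twelve to sixteen days. Injury was visually rated against untreated controls on a 0–10 scale, where 0 is no effect and 10 is complete control.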

smallflower flatsedge = assay: Test B flood test smallflower flatsedge; assay type: in vivo, Cyperus difformis
How it was run: as §2

duck salad = assay: Test B flood test duck salad; assay type: in vivo, Heteranthera limosa
How it was run: as §2

[1] = Postemergence, Rate 62 g/ha, scale 0 to 10, 0 is no effect, 10 is complete control
[2] = Postemergence, Rate 250 g/ha, scale 0 to 10, 0 no effect, 10 complete control
[3] = Preemergence, Rate 125 g/ha, scale 0 to 10 (0 no effect, 10 complete control)
[4] = Preemergence, Rate 250 g/ha, scale of 0 to 10 where 0 is no effect and 10 is complete control
[5] = Preemergence, Rate 500 g/ha, scale 0 (no effect) to 10 (complete control)
[6] = Rate 125 g/ha, Postemergence, scale 0 to 10, 0 no effect, 10 complete control
[7] = Preemergence, Rate 62 g/ha, scale 0 to 10, 0 is no effect, 10 is complete control
[8] = Rate 500 g/ha, Postemergence, scale 0 to 10, 0 no effect, 10 complete control
[9] = Rate 125 g/ha, Pre-emergence, flood test species, scale 0 to 10 where 0 is no effect and 10 is complete control
[10] = Rate 250 g/ha, headed Pre-emergence (flood test species), scale 0 to 10 (0 no effect, 10 complete control)
[11] = Rate 500 g/ha, headed Pre-emergence (flood test species), scale 0 to 10 (0 no effect, 10 complete control)
[12] = Rate 1000 g/ha, Pre-emergence (as headed), scale 0 to 10
[13] = Rate 2000 g/ha, Pre-emergence (as headed), scale 0 to 10

Cc1cccc(C)c1-n1c(=O)on(C(=O)N(c2ccc(Cl)cc2)C(C)C)c1=O [Compound 47]
5: Crabgrass plant response rating (crabgrass; [5])
4: Morningglory plant response rating (morningglory; [2])
1: Morningglory plant response rating (morningglory; [1])
3: Bedstraw plant response rating (bedstraw; [6]) | Plant response rating, Giant foxtail (giant foxtail; [4]) | Giant foxtail plant response rating (giant foxtail; [5]) | Wheat plant response rating (wheat; [8]) | Wild oats plant response rating (wild oat; [8]) | Ducksalad plant response rating (duck salad; [12])
6: Bedstraw plant response rating (bedstraw; [2]) | Morningglory plant response rating (morningglory; [8])
2: Plant response rating, Crabgrass (crabgrass; [3]) | Plant response rating, Crabgrass (crabgrass; [4]) | Crabgrass plant response rating (crabgrass; [8]) | Plant response rating, Giant foxtail (giant foxtail; [3]) | Giant foxtail plant response rating (giant foxtail; [8]) | Morningglory plant response rating (morningglory; [6]) | Redroot pigweed plant response rating (pigweed; [8]) | Soybean plant response rating (soybean; [1]) | Soybean plant response rating (soybean; [2]) | Soybean plant response rating (soybean; [6]) | Soybean plant response rating (soybean; [8]) | Wheat plant response rating (wheat; [2]) | S. Flatsedge plant response rating (smallflower flatsedge; Pre-emergence, Rate 1000 g/ha, scale 0 to 10 (0 no effect, 10 complete control)) | S. Flatsedge plant response rating (smallflower flatsedge; [10]) | Plant response rating, S. Flatsedge (smallflower flatsedge; [11])
0: Bedstraw plant response rating (bedstraw; [1]) | Plant response rating, Bedstraw (bedstraw; [3]) | Plant response rating, Bedstraw (bedstraw; [4]) | Bedstraw plant response rating (bedstraw; [5]) | Blackgrass plant response rating (blackgrass; [1]) | Blackgrass plant response rating (blackgrass; [2]) | Plant response rating, Blackgrass (blackgrass; [7]) | Plant response rating, Blackgrass (blackgrass; [3]) | Plant response rating, Blackgrass (blackgrass; [4]) | Blackgrass plant response rating (blackgrass; [5]) | Blackgrass plant response rating (blackgrass; [6]) | Blackgrass plant response rating (blackgrass; [8]) | B. signalgrass plant response rating (surinam grass; [1]) | B. signalgrass plant response rating (surinam grass; [2]) | Plant response rating, B. signalgrass (surinam grass; [7]) | Plant response rating, B. signalgrass (surinam grass; [3]) | Plant response rating, B. signalgrass (surinam grass; [4]) | B. signalgrass plant response rating (surinam grass; [5]) | B. signalgrass plant response rating (surinam grass; [6]) | B. signalgrass plant response rating (surinam grass; Rate 500 g/ha, Postemergence, scale of 0 to 10 where 0 is no effect and 10 is complete control) | Corn plant response rating (corn; [1]) | Corn plant response rating (corn; [2]) | Plant response rating, Corn (corn; [7]) | Plant response rating, Corn (corn; [3]) | Plant response rating, Corn (corn; [4]) | Corn plant response rating (corn; [5]) | Corn plant response rating (corn; [6]) | Corn plant response rating (corn; [8]) | Crabgrass plant response rating (crabgrass; [1]) | Crabgrass plant response rating (crabgrass; [2]) | Plant response rating, Crabgrass (crabgrass; [7]) | Crabgrass plant response rating (crabgrass; [6]) | Giant foxtail plant response rating (giant foxtail; [1]) | Giant foxtail plant response rating (giant foxtail; [2]) | Plant response rating, Giant foxtail (giant foxtail; [7]) | Giant foxtail plant response rating (giant foxtail; [6]) | Plant response rating, Morningglory (morningglory; [7]) | Plant response rating, Morningglory (morningglory; [3]) | Plant response rating, Morningglory (morningglory; [4]) | Morningglory plant response rating (morningglory; [5]) | Redroot pigweed plant response rating (pigweed; [1]) | Redroot pigweed plant response rating (pigweed; [2]) | Plant response rating, Redroot pigweed (pigweed; [7]) | Plant response rating, Redroot pigweed (pigweed; [3]) | Plant response rating, Redroot pigweed (pigweed; [4]) | Redroot pigweed plant response rating (pigweed; [5]) | Redroot pigweed plant response rating (pigweed; [6]) | Plant response rating, Soybean (soybean; [7]) | Plant response rating, Soybean (soybean; [3]) | Plant response rating, Soybean (soybean; [4]) | Soybean plant response rating (soybean; [5]) | Velvetleaf plant response rating (velvetleaf; [1]) | Velvetleaf plant response rating (velvetleaf; [2]) | Plant response rating, Velvetleaf (velvetleaf; [7]) | Plant response rating, Velvetleaf (velvetleaf; [3]) | Plant response rating, Velvetleaf (velvetleaf; [4]) | Velvetleaf plant response rating (velvetleaf; [5]) | Velvetleaf plant response rating (velvetleaf; [6]) | Velvetleaf plant response rating (velvetleaf; [8]) | Wheat plant response rating (wheat; [1]) | Plant response rating, Wheat (wheat; [7]) | Plant response rating, Wheat (wheat; [3]) | Plant response rating, Wheat (wheat; [4]) | Wheat plant response rating (wheat; [5]) | Wheat plant response rating (wheat; [6]) | Wild oats plant response rating (wild oat; [1]) | Wild oats plant response rating (wild oat; [2]) | Plant response rating, Wild oats (wild oat; [3]) | Plant response rating, Wild oats (wild oat; [4]) | Wild oats plant response rating (wild oat; [5]) | Wild oats plant response rating (wild oat; [6]) | Nutsedge plant response rating (purple nutsedge; Rate 62 g/ha, scale 0 to 10, 0 is no effect, 10 is complete control) | Nutsedge plant response rating (purple nutsedge; Rate 250 g/ha, scale 0 to 10, 0 no effect, 10 complete control) | Plant response rating, Nutsedge (purple nutsedge; Rate 125 g/ha, scale 0 to 10 (0 no effect, 10 complete control)) | Plant response rating, Nutsedge (purple nutsedge; Rate 250 g/ha, scale of 0 to 10 where 0 is no effect and 10 is complete control) | Nutsedge plant response rating (purple nutsedge; Rate 125 g/ha, scale 0 to 10, 0 no effect, 10 complete control) | Nutsedge plant response rating (purple nutsedge; Rate 500 g/ha, scale 0 to 10, 0 no effect, 10 complete control) | Rice plant response rating (rice; [9]) | Rice plant response rating (rice; [10]) | Plant response rating, Rice (rice; [11]) | Rice plant response rating (rice; [12]) | Rice plant response rating (rice; [13]) | S. Flatsedge plant response rating (smallflower flatsedge; [9]) | S. Flatsedge plant response rating (smallflower flatsedge; [13]) | Ducksalad plant response rating (duck salad; Rate 125 g/ha, Postemergence section (flood test species), scale 0 to 10, 0 no effect, 10 complete control) | Ducksalad plant response rating (duck salad; [9]) | Ducksalad plant response rating (duck salad; [10]) | Plant response rating, Ducksalad (duck salad; [11]) | Ducksalad plant response rating (duck salad; [13])
